{
  "source": "patent US20240230638A9",
  "about": "“SMALL MOLECULE SCREENING ASSAY FOR DIGITAL MICROFLUIDIC PLATFORM” (NICOYA LIFESCIENCES, INC., priority 2021, published 2024)",
  "origin": "cited, not measured here",
  "data": [
    {"conditions": "measure of hydrophobicity, literature values", "values": [
      {"molecule": "NS(=O)(=O)c1ccccc1", "note": "[Benzenesulfonamide]", "octanol-water partitioning coefficients (logKow)": 0.31},
      {"molecule": "CC(C)/N=c1\\cc2n(-c3ccc(Cl)cc3)c3ccccc3nc-2cc1Nc1ccc(Cl)cc1", "note": "[Clofazimine]", "octanol-water partitioning coefficients (logKow)": 6.3},
      {"molecule": "O=C(O)c1ccccc1Nc1cccc(C(F)(F)F)c1", "note": "[Flufenamic acid]", "octanol-water partitioning coefficients (logKow)": 5.19},
      {"molecule": "CC(C)Cc1ccc(C(C)C(=O)O)cc1", "note": "(stereo not shown) [Ibuprofen]", "octanol-water partitioning coefficients (logKow)": 3.97}
    ]}
  ]
}
